Assay results taken from PubChem BioAssay AID2060495 (Molecular Pharmacology Branch, DTP, NCI, 2025).

System: 521955-158-R2-J5-PDC complex spheroid viability
Assay: Anticancer human tumor 521955-158-R2-J5-PDC patient-derived pancreatic carcinoma cell line growth inhibition [GQUAD]
Details: for IC50: curve of first compound; for viability, T/C: stronger effect = lower value; active = viability on the fitted dose curve at most 10% of control; inactive = the rest
Excerpt: DNA G-quadruplex Stabilizer Agents in Combinations in Complex Spheroids
A high-throughput screen of multi-cell type tumor spheroids was designed to identify active combinations of DNA G-quadruplex stabilizer agents and targeted small molecules. Complex spheroids include a stromal component modeled by human endothelial cells (HUVEC) and fibroblasts modeled by human mesenchymal stem cells (MSCs). The concentration ranges selected for each drug and investigational agent were based upon clinically achievable concentrations if the clinical Cmax of the agent was known.
Compounds. The drugs and investigational agents: pidnarulex (CX-5461; NSC782164), APTO-253 (NSC789042), BRACO-19 (NSC847499), peposertib (NSC802822), ceralasertib (NSC780249), elimusertib (NSC800525), camonsertib (NSC841442), AZD-1390 (NSC803789), olaparib (NSC753686), talazoparib (NSC767125), ART-558 (NSC835418), sotorasib (NSC818433), MRTX-1133 (NSC836407), SN-38 (NSC673596), topotecan (NSC609699), etoposide (NSC141540), doxorubicin (NSC123127), gemcitabine (NSC613327), 5-fluorouracil (NSC19893), paclitaxel (NSC125973), vemurafenib (NSC761431), panobinostat (NSC761190), R-306465 (JNJ-16241199; NSC773264), adavosertib (NSC754352), TP-3654 (NSC805149), carboplatin (NSC241240), KSQ-4279 (NSC840948), and staurosporine (NSC755774) were obtained from the National Cancer Institute (NCI) Developmental Therapeutics Program Chemical Repository (34). The FDA-approved anticancer drug set is available from the NCI Developmental Therapeutics Program. […] The stock solutions were prepared in dimethyl sulfoxide (DMSO, Sigma-Aldrich, St. Louis, MO, cat. D2650) at 800-fold the tested concentration and stored at -70 degrees C prior to their use. All drugs and investigational agents were tested over a range starting from a high concentration at or near the clinical Cmax and decreasing in half-log increments. If the clinical Cmax for an agent had not been determined, the highest concentration tested was 10 microM.
2.3 Cell Culture. All cells were maintained in an incubator at 37 degrees C and 5% CO2 with 95% humidity. The PDC lines were cultured according to standard operating procedures established by the NCI PDMR. All PDCs were thawed and cultured in Matrigel-coated flasks prepared with a working solution of 1X Ham's F-12 nutrient mix, without supplementation (Invitrogen, cat. 11765054), 100 U/mL penicillin-streptomycin (Invitrogen, cat. 15140122), and 2.5% Matrigel (Corning Inc., cat. 354248) for the first three passages. The 857933-349-R-J2-PDC line was cultured in 6C/Colon 1B media, which includes advanced DMEM/F-12 (Thermo Fisher Scientific, cat. 12634028), 10 mM HEPES (Thermo Fisher Scientific, cat. 15630080), 1X GlutaMAX supplement (Thermo Fisher Scientific, cat. 35050061), 0.1 mg/mL primocin (InvivoGen, cat. ant-pm-2), 10% defined fetal bovine serum, heat inactivated (HyClone Laboratories Inc., cat. SH30070.03HI), 50% L-WRN conditioned media (ATCC, cat. CRL-3276), 1.25 mM N-Acetyl-L-cysteine (Sigma-Aldrich, cat. A9165), 10 mM nicotinamide (Sigma-Aldrich, cat. N0636), 1X B-27 supplement (Thermo Fisher Scientific, cat. 17504044), 1X N-2 supplement (Thermo Fisher Scientific, cat. 17502048), 10 microM Y-27632 dihydrochloride (Tocris Bioscience, cat. 1254), and 50 ng/mL human EGF recombinant protein (Thermo Fisher Scientific, cat. PHG0311). The 485176-168-R4-J1-PDC line was cultured in Panc media, which includes all 6C/Colon 1B media components plus 100 ng/mL human FGF-10 (Thermo Fisher Scientific, cat. 100-26), 500 nM SB-431542 (Selleckchem, cat. S1067), and gastrin (Tocris, cat. 3006).
[…]

[1] = second compound 0.0316 µM, first compound 0.0316 µM
[2] = second compound 0.0316 µM, first compound 0.316 µM
[3] = second compound 0.1 µM, first compound 0.0316 µM
[4] = second compound 0.1 µM, first compound 0.316 µM
[5] = second compound 0.316 µM, first compound 0.0316 µM
[6] = second compound 0.316 µM, first compound 0.316 µM
[7] = second compound 1 µM, first compound 0.0316 µM
[8] = second compound 1 µM, first compound 0.316 µM
[9] = second compound 3.16 µM, first compound 0.0316 µM
[10] = second compound 3.16 µM, first compound 0.316 µM
[11] = second compound 10 µM, first compound 0.0316 µM
[12] = second compound 10 µM, first compound 0.316 µM
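Note: spheroids exposed to agents for one week before reading.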

Cc1cccc(N(C)C(=O)C2C(O)CCN2c2nc(C)cc(C(F)(F)F)c2C#N)c1 (centres undefined) + CN(C)c1ccc(Nc2c3ccc(NC(=O)CCN4CCCC4)cc3nc3cc(NC(=O)CCN4CCCC4)ccc23)cc1
> 10000 nM: IC50 (second compound 0.0316 µM) | IC50 (second compound 0.1 µM) | IC50 (second compound 0.316 µM) | IC50 (second compound 1 µM) | IC50 (second compound 3.16 µM)
inactive: viability, T/C [1] 110% | viability, T/C (second compound 0.0316 µM, first compound 0.1 µM) 102% | viability, T/C [2] 99.6% | viability, T/C (second compound 0.0316 µM, first compound 1 µM) 107% | viability, T/C (second compound 0.0316 µM, first compound 3.16 µM) 103% | viability, T/C (second compound 0.0316 µM, first compound 10 µM) 116% | viability, T/C [3] 102% | viability, T/C (second compound 0.1 µM, first compound 0.1 µM) 91.4% | viability, T/C [4] 99.3% | viability, T/C (second compound 0.1 µM, first compound 1 µM) 96.3% | viability, T/C (second compound 0.1 µM, first compound 3.16 µM) 125% | viability, T/C (second compound 0.1 µM, first compound 10 µM) 109% | viability, T/C [5] 104% | viability, T/C (second compound 0.316 µM, first compound 0.1 µM) 95.2% | viability, T/C [6] 103% | viability, T/C (second compound 0.316 µM, first compound 1 µM) 118% | viability, T/C (second compound 0.316 µM, first compound 3.16 µM) 130% | viability, T/C (second compound 0.316 µM, first compound 10 µM) 99.9% | viability, T/C [7] 84.6% | viability, T/C (second compound 1 µM, first compound 0.1 µM) 99.7% | viability, T/C [8] 96.3% | viability, T/C (second compound 1 µM, first compound 1 µM) 86% | viability, T/C (second compound 1 µM, first compound 3.16 µM) 94.4% | viability, T/C (second compound 1 µM, first compound 10 µM) 84.2% | viability, T/C [9] 85.8% | viability, T/C (second compound 3.16 µM, first compound 0.1 µM) 72.1% | viability, T/C [10] 77.4% | viability, T/C (second compound 3.16 µM, first compound 1 µM) 78% | viability, T/C (second compound 3.16 µM, first compound 3.16 µM) 93.4% | viability, T/C (second compound 3.16 µM, first compound 10 µM) 54.1% | viability, T/C [11] 67.2% | viability, T/C (second compound 10 µM, first compound 0.1 µM) 54.3% | viability, T/C [12] 58% | viability, T/C (second compound 10 µM, first compound 1 µM) 58.4% | viability, T/C (second compound 10 µM, first compound 3.16 µM) 48.5% | viability, T/C (second compound 10 µM, first compound 10 µM) 18.8%
2590 nM: IC50 (second compound 10 µM)

Cn1ncnc1[C@H]1c2n[nH]c(=O)c3cc(F)cc(c23)N[C@@H]1c1ccc(F)cc1 + CN(C)c1ccc(Nc2c3ccc(NC(=O)CCN4CCCC4)cc3nc3cc(NC(=O)CCN4CCCC4)ccc23)cc1
> 316 nM: IC50 (second compound 0.0316 µM) | IC50 (second compound 0.1 µM) | IC50 (second compound 0.316 µM) | IC50 (second compound 1 µM) | IC50 (second compound 3.16 µM) | IC50 (second compound 10 µM)
inactive: viability, T/C (second compound 0.0316 µM, first compound 0.000999 µM) 99.1% | viability, T/C (second compound 0.0316 µM, first compound 0.00316 µM) 89% | viability, T/C (second compound 0.0316 µM, first compound 0.00999 µM) 104% | viability, T/C [1] 91.1% | viability, T/C (second compound 0.0316 µM, first compound 0.0999 µM) 90.7% | viability, T/C [2] 80% | viability, T/C (second compound 0.1 µM, first compound 0.000999 µM) 92.8% | viability, T/C (second compound 0.1 µM, first compound 0.00316 µM) 98.7% | viability, T/C (second compound 0.1 µM, first compound 0.00999 µM) 90% | viability, T/C [3] 93.9% | viability, T/C (second compound 0.1 µM, first compound 0.0999 µM) 92.2% | viability, T/C [4] 81.4% | viability, T/C (second compound 0.316 µM, first compound 0.000999 µM) 97.5% | viability, T/C (second compound 0.316 µM, first compound 0.00316 µM) 95.7% | viability, T/C (second compound 0.316 µM, first compound 0.00999 µM) 93.3% | viability, T/C [5] 90.6% | viability, T/C (second compound 0.316 µM, first compound 0.0999 µM) 88.2% | viability, T/C [6] 83.7% | viability, T/C (second compound 1 µM, first compound 0.000999 µM) 99.6% | viability, T/C (second compound 1 µM, first compound 0.00316 µM) 90.2% | viability, T/C (second compound 1 µM, first compound 0.00999 µM) 92.1% | viability, T/C [7] 97% | viability, T/C (second compound 1 µM, first compound 0.0999 µM) 89.2% | viability, T/C [8] 73.7% | viability, T/C (second compound 3.16 µM, first compound 0.000999 µM) 87.4% | viability, T/C (second compound 3.16 µM, first compound 0.00316 µM) 77.9% | viability, T/C (second compound 3.16 µM, first compound 0.00999 µM) 76.4% | viability, T/C [9] 67.5% | viability, T/C (second compound 3.16 µM, first compound 0.0999 µM) 74.7% | viability, T/C [10] 66.3% | viability, T/C (second compound 10 µM, first compound 0.000999 µM) 68.1% | viability, T/C (second compound 10 µM, first compound 0.00316 µM) 70.6% | viability, T/C (second compound 10 µM, first compound 0.00999 µM) 70.7% | viability, T/C [11] 60.5% | viability, T/C (second compound 10 µM, first compound 0.0999 µM) 61.4% | viability, T/C [12] 59.4%
